{"source": "patent US20250388529A1", "about": "“N-Substituted Phenylalkylamines and Their Use as Therapeutic Agents” (priority 2023, published 2025)", "key": {"human Nav1.1 and Navβ1": {"molecular_target": "human Nav1.1 and Navβ1 (Homo sapiens, UniProt P35498)", "assay": "cell-based", "settings": "for Peak INa Density @ −20 mV: I-V curve"}, "[1]": {"assay": "Chance observation of local anesthetic effect upon contact with mucous membranes", "format": "in vivo"}, "HiBiT-5-HT2C": {"molecular_target": "HiBiT-5-HT2C (Homo sapiens, UniProt P28335)", "sequence (P28335 33-458)": "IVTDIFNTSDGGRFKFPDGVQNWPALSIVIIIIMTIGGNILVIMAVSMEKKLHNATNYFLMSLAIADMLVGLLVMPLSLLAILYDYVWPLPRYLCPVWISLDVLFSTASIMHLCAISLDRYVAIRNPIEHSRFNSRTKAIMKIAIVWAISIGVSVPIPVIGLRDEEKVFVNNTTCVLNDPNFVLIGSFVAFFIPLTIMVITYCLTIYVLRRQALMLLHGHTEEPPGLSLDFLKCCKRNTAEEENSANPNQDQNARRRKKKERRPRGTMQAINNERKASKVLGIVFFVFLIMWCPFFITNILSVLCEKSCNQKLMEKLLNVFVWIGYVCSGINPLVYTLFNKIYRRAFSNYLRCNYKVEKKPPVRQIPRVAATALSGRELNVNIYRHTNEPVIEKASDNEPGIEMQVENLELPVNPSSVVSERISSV", "assay": "cell-based"}, "5-HT2B": {"molecular_target": "5-HT2B (Homo sapiens, UniProt P41595)", "sequence (P41595 whole entry)": "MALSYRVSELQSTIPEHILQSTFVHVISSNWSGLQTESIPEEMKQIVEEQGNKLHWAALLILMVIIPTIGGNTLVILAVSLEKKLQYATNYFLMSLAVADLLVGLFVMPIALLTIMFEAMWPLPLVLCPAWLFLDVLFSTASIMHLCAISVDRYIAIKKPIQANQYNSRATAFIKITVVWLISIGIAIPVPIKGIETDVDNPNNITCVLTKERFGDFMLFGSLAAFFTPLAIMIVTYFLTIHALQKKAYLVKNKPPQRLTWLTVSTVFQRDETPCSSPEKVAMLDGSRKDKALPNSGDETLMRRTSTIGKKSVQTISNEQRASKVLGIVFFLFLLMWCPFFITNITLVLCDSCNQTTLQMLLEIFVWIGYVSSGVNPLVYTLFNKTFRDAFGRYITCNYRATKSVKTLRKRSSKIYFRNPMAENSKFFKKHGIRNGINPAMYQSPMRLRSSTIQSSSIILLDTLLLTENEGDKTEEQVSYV", "assay": "Gq-mediated calcium flux assay, Flp-In 293 T-Rex inducible cells (agonist and antagonist mode)", "format": "cell-based", "set-up": "expressed in transfected cells"}}}
{"smiles": "COc1cc(CCNCCCCCCOCCCCc2ccccc2)c(OC)cc1Br", "note": "[XOB, N-(4-bromo-2,5-dimethoxyphenethyl)-6-(4-phenylbutoxy)hexan-1-amine]", "values": [{"measurement": "Top of concentration response curve (normalized peak INa inhibition)", "setting": "human Nav1.1 and Navβ1", "result": 0.88}, {"measurement": "effect on voltage-dependence of sodium conductance", "setting": "human Nav1.1 and Navβ1", "result": "no effect was observed"}, {"measurement": "Normalized Peak INa Inhibition", "setting": "human Nav1.1 and Navβ1; 0.1 nM, peak protocol", "result": "−0.077 ± 0.08"}, {"measurement": "Peak INa Density", "setting": "human Nav1.1 and Navβ1; 0.1 nM, peak protocol", "result": "−429.6 ± 50.7", "unit": "pA/pF"}, {"measurement": "Peak INa Density @ −20 mV", "setting": "human Nav1.1 and Navβ1; 1 nM", "result": "−395.9 ± 56.0", "unit": "pA/pF"}, {"measurement": "Normalized Peak INa Inhibition", "setting": "human Nav1.1 and Navβ1; 1 nM, peak protocol", "result": "0.015 ± 0.03"}, {"measurement": "Peak INa Density", "setting": "human Nav1.1 and Navβ1; 1 nM, peak protocol", "result": "−386.1 ± 56.6", "unit": "pA/pF"}, {"measurement": "Peak INa Density @ −20 mV", "setting": "human Nav1.1 and Navβ1; 10 nM", "result": "−319.1 ± 50.5", "unit": "pA/pF"}, {"measurement": "Normalized Peak INa Inhibition", "setting": "human Nav1.1 and Navβ1; 10 nM, peak protocol", "result": "−0.011 ± 0.03"}, {"measurement": "Peak INa Density", "setting": "human Nav1.1 and Navβ1; 10 nM, peak protocol", "result": "−311.1 ± 41.7", "unit": "pA/pF"}, {"measurement": "Peak INa Density @ −20 mV", "setting": "human Nav1.1 and Navβ1; 100 nM", "result": "−258.3 ± 34.1", "unit": "pA/pF"}, {"measurement": "Normalized Peak INa Inhibition", "setting": "human Nav1.1 and Navβ1; 100 nM, peak protocol", "result": "0.13 ± 0.02"}, {"measurement": "Peak INa Density", "setting": "human Nav1.1 and Navβ1; 100 nM, peak protocol", "result": "−276.0 ± 31.0", "unit": "pA/pF"}, {"measurement": "Peak INa Density @ −20 mV", "setting": "human Nav1.1 and Navβ1; 300 nM", "result": "−235.1 ± 37.9", "unit": "pA/pF"}, {"measurement": "Normalized Peak INa Inhibition", "setting": "human Nav1.1 and Navβ1; 300 nM, peak protocol", "result": "0.08 ± 0.06"}, {"measurement": "Peak INa Density", "setting": "human Nav1.1 and Navβ1; 300 nM, peak protocol", "result": "−259.2 ± 38.0", "unit": "pA/pF"}, {"measurement": "Peak INa Density @ −20 mV", "setting": "human Nav1.1 and Navβ1; 500 nM", "result": "−269.2 ± 38.8", "unit": "pA/pF"}, {"measurement": "Normalized Peak INa Inhibition", "setting": "human Nav1.1 and Navβ1; 500 nM, peak protocol", "result": "0.05 ± 0.07"}, {"measurement": "Peak INa Density", "setting": "human Nav1.1 and Navβ1; 500 nM, peak protocol", "result": "−284.6 ± 35.2", "unit": "pA/pF"}, {"measurement": "Peak INa Density @ −20 mV", "setting": "human Nav1.1 and Navβ1; 1 μM", "result": "−320.5 ± 40.0", "unit": "pA/pF"}, {"measurement": "Normalized Peak INa Inhibition", "setting": "human Nav1.1 and Navβ1; 1 μM, peak protocol", "result": "0.12 ± 0.03"}, {"measurement": "Peak INa Density", "setting": "human Nav1.1 and Navβ1; 1 μM, peak protocol", "result": "−319.1 ± 34.5", "unit": "pA/pF"}, {"measurement": "Activation Slope Factor", "setting": "human Nav1.1 and Navβ1; 3 μM", "result": "6.18 ± 1.1", "unit": "mV^−1"}, {"measurement": "Activation V1/2", "setting": "human Nav1.1 and Navβ1; 3 μM", "result": "−34.32 ± 1.8", "unit": "mV"}, {"measurement": "Capacitance", "setting": "human Nav1.1 and Navβ1; 3 μM", "result": "11.17 ± 1.0", "unit": "pF"}, {"measurement": "Inactivation Slope Factor", "setting": "human Nav1.1 and Navβ1; 3 μM", "result": "−6.41 ± 0.7", "unit": "mV^−1"}, {"measurement": "Inactivation V1/2", "setting": "human Nav1.1 and Navβ1; 3 μM", "result": "−60.46 ± 1.5", "unit": "mV"}, {"measurement": "Peak INa Density @ −20 mV", "setting": "human Nav1.1 and Navβ1; 3 μM", "result": "−149.4 ± 22.4", "unit": "pA/pF"}, {"measurement": "Normalized Peak INa Inhibition", "setting": "human Nav1.1 and Navβ1; 3 μM, peak protocol", "result": "0.36 ± 0.05"}, {"measurement": "Peak INa Density", "setting": "human Nav1.1 and Navβ1; 3 μM, peak protocol", "result": "−187.1 ± 23.3", "unit": "pA/pF"}, {"measurement": "Peak INa Density @ −20 mV", "setting": "human Nav1.1 and Navβ1; 5 μM", "result": "−115.6 ± 20.4", "unit": "pA/pF"}, {"measurement": "Normalized Peak INa Inhibition", "setting": "human Nav1.1 and Navβ1; 5 μM, peak protocol", "result": "0.46 ± 0.06"}, {"measurement": "Peak INa Density", "setting": "human Nav1.1 and Navβ1; 5 μM, peak protocol", "result": "−171.3 ± 22.2", "unit": "pA/pF"}, {"measurement": "reduction of baseline peak INa", "setting": "human Nav1.1 and Navβ1; 10 μM", "result": "73±3", "unit": "%"}, {"measurement": "Peak INa Density @ −20 mV", "setting": "human Nav1.1 and Navβ1; 10 μM, step −120 mV to −20 mV", "result": "−17.46±3.1", "unit": "pA/pF"}, {"measurement": "Peak INa Density", "setting": "human Nav1.1 and Navβ1; 10 μM, peak protocol", "result": "−85.4 ± 12.9", "unit": "pA/pF"}, {"measurement": "Normalized Peak INa Inhibition", "setting": "human Nav1.1 and Navβ1; 10 μM, peak protocol, 1−(IDrug÷IReference)", "result": "0.73 ± 0.03"}, {"measurement": "IC50", "setting": "human Nav1.1 and Navβ1; concentration response curve, peak protocol, read-out: IC50, inhibition of peak INa (VGSC)", "result": 4.29, "unit": "µM"}, {"measurement": "local anesthetic effect", "setting": "[1]", "result": "profound and long-lasting local anesthetic effect"}, {"measurement": "Ki", "setting": "HiBiT-5-HT2C", "result": "> 10", "unit": "µM"}, {"measurement": "agonist activity at 5-HT2B", "setting": "5-HT2B; agonist mode, up to 10 μM", "result": "little to no measurable agonist activity"}, {"measurement": "inhibition of 5-HT-mediated calcium flux at 5-HT2B", "setting": "5-HT2B; antagonist mode, concentrations up to 10 μM", "result": "< 50", "unit": "%"}]}
